Measurements published in patent publication US20250170240A1, “MODIFIED INVARIANT NATURAL KILLER T CELLS EXPRESSING A CHIMERIC ANTIGEN RECEPTOR AND USES THEREOF” (Tinkeso Therapeutics, Inc., priority 2022, published 2025).

Legend:
[1] = tested on: CD1d^+ target cells; assay: Cytokine release assay (IFN-γ ELISA), glycolipid-pulsed CD1d+ target cells; assay type: cell-based, human; conditions: pulsed MV4:11-hfflucN; 3-month cultured INKT47 CD19 CAR (allo) and iNKT48 CD19 CAR/GFP (allo); FIG. 13C
Experimental: Cytokine Release Assays: Cytokine release assays were performed by co-culturing 1-2×10^5 T cells with 2×10^4 target cells per well in duplicate in 96-well flat-bottom plates. After 24 h, supernatants were assayed using a LEGEND MAX Human IFN-γ ELISA kit (BioLegend, Cat No. 430107).

[2] = tested on: CD1d^+ target cells; assay: Luciferase-based killing assay, glycolipid- or DMSO-pulsed CD1d+ target cells; assay type: cell-based, human; conditions: effector thawed iNKT47 CD19 CAR (allo), FIG. 13B
Experimental: Luciferase-Based Killing Assay: αGalCer or DMSO pulsed target cells were prepared by incubating target cells (2×10^5/mL) at 37° C., 5% CO2 with αGalCer (200 ng/ml) or DMSO (1:500 of 10% stock) overnight and used for cytotoxicity assays after spinning to remove medium containing αGalCer or DMSO. Luciferase-expressing target cells (1×104 in 50 μL per well) were incubated with 50 μL of INKT cells per well at different effector T cell: target cell (E/T) ratios in quadruplicate in a 96-well flat-bottom white polystyrene microplate (Corning, Cat No. 3912). A spontaneous or maximal killing was set up by adding 50 μL per well of culture medium or 1% Triton X-100 instead of INKT cells, respectively. After a standard 4 h or 16 h (as indicated) incubation at 37° C., 10 μL of D-luciferin (1:10 of 30 mg/ml stock) or 50 μL (1:50 of 30 mg/mL) (Caliper Life Sciences, Cat No. XR-1001) was added to each well. Luciferase activity was measured using a Synergy 2 microplate reader (BioTek). Percent specific lysis was calculated as follows: […]

CCCCCCCCCCCCCC[C@@H](O)[C@@H](O)[C@H](CO[C@H]1O[C@H](CO)[C@H](O)[C@H](O)[C@H]1O)NC(=O)CCCCCCCCCCc1ccc(F)cc1 [7DW8-5]
potency in stimulating iNKT cells to produce IFN-γ [1]: more potent than αGalCer
potency relative to αGalCer in sensitizing CD1d+ target cells ([2]; Molm13): at least 16 fold
potency relative to αGalCer in sensitizing CD1d+ target cells ([2]; THP1): ≥ 64 fold
